Patent publication US5393786A, “Method for treating inflammation, ischemia-induced cell damage and muscular dystrophy” (priority 1993, dated 1995)
Like-named read-outs stand apart in the source and are kept apart here.

What was measured:
[1] = tested on: adjuvant-induced arthritis (uninjected hind paw); experiment: Developing Adjuvant-Induced Arthritis Test in Rats; format: in vivo, male Lewis-Wistar rats; details: po, 720 h, AUC days 16-30
[2] = tested on: striatal cell layer of the striatum; experiment: Stroke model in rats (four-vessel occlusion), striatal damage; format: in vivo, male Wistar rats
Excerpt: (§1) Strokes were produced in rats by occluding the four arteries that supply blood to the brain according to the following procedure. Male Wistar rats (250-280 g; Hilltop Laboratories, Scottsdale, Pa.) were anesthetized with metofane and placed into a stereotaxic instrument. A longitudinal incisio was made on the dorsal surface of the neck. The neck muscles were reflected to expose the dorsal surface of the spinal column. The two vertebral arteries were exposed where they pass through the first cervica vertebra. Both arteries were permanently occluded by the application of electrocautery. After coagulation of the vertebral arteries, the rat was removed from the stereotaxic instrument and the surgical wound was sutured. Two longitudinal incisions were then made on the ventral surface of the neck. The two common carotid arteries were exposed and dissected free from surrounding nerves and connective tissue. Reversible atraumatic clamps, fabricated mainly from silicon rubber tubing, were placed around each carotid artery in a manner such that the vessels were not traumatize or occluded. The clamps were externalized through the ventral neck incision. A suture was also placed through the neck dorsal to the carotids, esophagus and trachea, and tied loosely behind the neck. This suture is tied tightly at the time ischemia is induced in order to restrict collateral circulation reaching the brain through the dorsal muscles of the neck. The surgical wounds were then closed. After the surgery, the rats were allowed to recover for 24 hours (free access to water, but no food during this period).
(§2) On the day of testing, test compounds were administered at various times before stroke induction. Strokes (cerebral ischemia) were induced by tightening the clamps around the carotids, thereby stopping blood flow in the carotids. Rats in which strokes were successfully produced lost the righting reflex and became unresponsive to stimuli. Collateral circulatio through the dorsal neck muscles was then restricted by tightening the previously implanted suture. […] After 30 minutes of ischemia, the carotid clamps wer released, the neck suture was loosened, and blood flow to the brain was restored. Following the period of ischemia, the rats were allowed free access to food and water. Rats were again treated with test compounds at various times after the stroke. On the third day after the stroke the animals were sacrificed and their brains were removed, frozen and sectioned through the striatum and hippocampus. Sections were mounted on glass slides and stained with hematoxylin and eosin.
(§3) Two of the areas of the brain that are most susceptible to ischemia induce damage, both in rats and humans, are the CA1 pyramidal cell layer of the hippocampus and the striatal cell layer of the striatum. In animals that remain unresponsive for the 30 minute period of ischemia, the CA1 pyramidal cell layer and the striatal cell layer are completely destroyed. These layers of cells were examined microscopically in histological sections prepared from the hippocampus and striatum. Brain damage was rated according to the following scale:
(§4) 0=no damage, completely intact cell layer
(§5) 1=mild damage, onethird of cell layer dead
(§6) 2=moderate damage, twothirds of cell layer dead
(§7) 3=severe damage, complete destruction of cell layer
(§8) Damage in 10-12 sections from each brain was assessed in order to obtain a accurate estimate of damage. An average damage score was calculated for each treatment group. Scores from treated groups were compared statistically with scores from control groups which received only the vehicle used to suspend the compounds. The level of significance was determined using the Mann WhitneyU-test.

[3] = tested on: ischemia-induced cell damage caused by middle cerebral artery occlusion; experiment: Middle Cerebral Artery Occlusion Stroke Model; format: in vivo, male spontaneously hypertensive rats; details: saline
Excerpt: Strokes were also produced in rats by occluding the middle cerebral artery according to the following procedure. Male spontaneously hypertensive rats were housed in groups of three to four per cage and allowed free access to food and water. The animals were anesthetized with a mixture of 2.5% halothane and air. The anesthetized rats then underwent the following surgical procedure.
A femoral artery of each rat was cannulated to monitor mean arterial pressure and a jugular cannula was inserted in order to provide a means for administering test compounds intravenously. […] The ventral neck area and the area behind each animal's right eye were shaved and washed with antiseptic solution. The right common carotid artery was dissected free of connective tissue through a midline cervical incision and the vessel permanently occluded with a silk ligature. Next, a 1 cm incision perpendicular to, and bisecting a line between the lateral canthus of the right eye and the external auditory canal, was made to expose the temporalis muscle which was retracted and partially excised. Using a dissecting microscope, the right middle cerebral artery was exposed through a 2 mm burr hole drilled 2-3 mm rostral to the fusion of the zygomatic arch with a squamosal bone. Drilling was done under a continuous drip of a 0.9% saline solution to prevent heat injury of the underlying cortex. The dura was cut and retracted to expose the middle cerebral artery.
This artery was occluded in two ways. The first method of occlusion involved permanent cauterization of the artery so that blood flow through the artery was completely eliminated. The second method of occulsion was only temporary (lasting two hours) and involved clamping the artery with microaneurism clips. Test compounds were administered at various times before, during and after occlusion. Each animal's body temperature was maintained at 37° C. during testing using a rectal thermometer connected to a heating pad.
Twenty-four hours after tandem middle cerbral carotid artery occlusion, the test animals were sacrificed and their brains removed and frozen over dry ice. Coronal sections 20 microns thick were cut at half millimeter intervals in a cryostat at -20° C. and dried on a hot plate at 60° C. The sections were then stained with cresyl violet. […] A total infarct volume was then calculated using a computer program that summed all sectional areas measured multiplied by the interval thickness. The lower the infarcted volume obtained, the lower the amount of cell damage caused by the stroke. The level of significance was obtained using Student's "t-test".

[4] = tested on: hippocampal CA1 pyramidal cell layer; experiment: Stroke model in rats (four-vessel occlusion), hippocampal CA1 damage
Excerpt: as §1, §2, §3, §4, §5, §6, §7, §8

[5] = tested on: dystrophic mice (dy/dy); experiment: Muscular Dystrophy Animal Model, life span of dystrophic mice; format: in vivo; details: 0.03 wgt % of compound in diet; control 73 days
Procedure: Dystrophic mice (dy/dy) were obtained from Jackson Laboratories after weaning (approximately 21 days) and treatment with the compound shown in Table IV was begun at the first sign of dystrophy. The compound was administered in the diet and lifespan was measured during the course of treatment. The food and water sources were located in different parts of the cage requiring the animals to walk from the food source to the water source to survive.

[6] = Chemical Abstracts, 74, 96312e (1971); cited from earlier work
[7] = Chemical Abstracts, 78, 132326f (1973); cited from earlier work
[8] = 50 mg/kg rat weight × 29, p.o. once daily, read-out: % Inhibition of Uninjected Paw Volume Inflammation, Days 16-30

For `CN(C)Cc1cc(C(C)(C)C)c(O)c(C(C)(C)C)c1.Cl` [4-[(dimethylamino)methyl]-2,6-bis(1,1-dimethylethyl)phenol hydrochloride], the inhibition in vivo at 50 mg/kg ([1]; Rattus norvegicus, read-out: % Inhibition of Uninjected Paw Volume Inflammation, Days 16-30, 50 mg/kg rat weight × 29, p.o. once daily) was 94.8%, the “Damage Score, Striatum” value ([2]; scale 0 (no damage)-3 (severe), mean ± SE, 50 mg/kg orally, 2% acacia, time a (15 min pre, 4 h and 24 h postischemia), control 2.6 ± 0.2) was 1.1 ± 0.2 and the “Infarct Volume” value ([3]; permanent occlusion, 50/10 mg/kg i.v. (per hour), time c (15 min before occlusion, then 24 h), control 136 ± 7) was 91 ± 12 (mm)^3. The “Infarct Volume” value ([3]; temporary occlusion, 50/50/10 mg/kg i.p./i.p./i.v. (per hour), time a (15 min before clamping, 15 min before clamp removal, then 24 h), control 114.4 ± 14.1) was 47.9 ± 3.4 (mm)^3, the “Infarct Volume” value ([3]; temporary occlusion, 50/50/10 mg/kg i.p./i.p./i.v. (per hour), time b (15 min after clamping, 15 min before clamp removal, then 24 h), control 101.7 ± 9.1) was 35.5 ± 5.3 (mm)^3 and the “Infarct Volume” value ([3]; temporary occlusion, 50/50/10 mg/kg i.p./i.p./i.v. (per hour), time b, rats fasted overnight, control 61.9 ± 7.9) was 23.1 ± 4.9 (mm)^3. For the same molecule, the “Damage Score, Hippocampus” value ([4]; scale 0 (no damage)-3 (severe), mean ± SE, 50 mg/kg orally, 2% acacia, time a (15 min pre, 4 h and 24 h postischemia), control 2.7 ± 0.2) was 1.7 ± 0.3.

For `CN(C)Cc1cc(C(C)(C)C)c(O)c(C(C)(C)C)c1` [4-[(dimethylamino)methyl]-2,6-bis(1,1-dimethylethyl)phenol], the inhibition in vivo at 50 mg/kg [1, 8] was 59.7%, the “Damage Score, Striatum” value ([2]; scale 0-3, mean ± SE, 100 mg/kg orally, 2% acacia, time b (2 h pre, 24 h postischemia), control 2.5 ± 0.5) was 0.8 ± 0.3 and the “Average Life Span” value [5] was 120 days. The “Damage Score, Hippocampus” value ([4]; scale 0-3, mean ± SE, 100 mg/kg orally, 2% acacia, time b (2 h pre, 24 h postischemia), control 2.8 ± 0.2) was 0.8 ± 0.4.

With `CCCN(CCC)Cc1cc(C(C)(C)C)c(O)c(C(C)(C)C)c1.Cl` [4-[(dipropylamino)methyl]-2,6-bis(1,1-dimethylethyl)phenol hydrochloride] the inhibition in vivo at 50 mg/kg [1, 8] was 64.4%, the “Damage Score, Striatum” value ([2]; scale 0-3, mean ± SE, 100 mg/kg orally, 2% acacia, time c (30 min pre, 4 h and 24 h postischemia), control 1.4 ± 0.3) was 1.2 ± 0.4 and the “Infarct Volume” value ([3]; temporary occlusion, 20/5 mg/kg i.v. (per hour), time d, control 123 ± 14) was 143 ± 12 (mm)^3. The “Damage Score, Hippocampus” value ([4]; scale 0-3, mean ± SE, 100 mg/kg orally, 2% acacia, time c (30 min pre, 4 h and 24 h postischemia), control 2.5 ± 0.3) was 1.0 ± 0.4.

Work on `CCNCc1cc(C(C)(C)C)c(O)c(C(C)(C)C)c1.Cl` [4-[(ethylamino)methyl]-2,6-bis(1,1-dimethylethyl)phenol hydrochloride] yielded an inhibition in vivo at 5 mg/kg ([1]; 5 mg/kg rat weight × 29, p.o. once daily, read-out: % Inhibition of Uninjected Paw Volume Inflammation, Days 16-30) of 27.9%, an inhibition in vivo at 10 mg/kg ([1]; 10 mg/kg rat weight × 29, p.o. once daily, read-out: % Inhibition of Uninjected Paw Volume Inflammation, Days 16-30) of 19.6% and an inhibition in vivo at 20 mg/kg ([1]; 20 mg/kg rat weight × 29, p.o. once daily, read-out: % Inhibition of Uninjected Paw Volume Inflammation, Days 16-30) of 50.8%. For the same molecule, the inhibition in vivo at 25 mg/kg ([1]; 25 mg/kg rat weight × 29, p.o. once daily, read-out: % Inhibition of Uninjected Paw Volume Inflammation, Days 16-30) was 96.5%, the “Damage Score, Striatum” value ([2]; scale 0-3, mean ± SE, 20 mg/kg / 5 mg/kg per hour i.v., 10% DMSO/TWEEN 80/NaCl, time d (immediately after ischemia, then continuous 24 h), control 2.37 ± 0.28) was 1.20 ± 0.42 and the “Infarct Volume” value ([3]; permanent occlusion, 20/5 mg/kg i.v. (per hour), time c, control 172 ± 19) was 122 ± 12 (mm)^3. For the same molecule, the “Infarct Volume” value ([3]; temporary occlusion, 10/5 mg/kg i.v., time f (one hour after clamping, then upon clamp removal for 24 h), control 128 ± 17) was 74 ± 8 (mm)^3 and the “Damage Score, Hippocampus” value ([4]; scale 0-3, mean ± SE, 20 mg/kg / 5 mg/kg per hour i.v., 10% DMSO/TWEEN 80/NaCl, time d (immediately after ischemia, then continuous 24 h), control 2.83 ± 0.12) was 1.23 ± 0.47.

With `CNCc1cc(C(C)(C)C)c(O)c(C(C)(C)C)c1.Cl` [4-[(methylamino)methyl]-2,6-bis(1,1-dimethylethyl)phenol hydrochloride] the inhibition in vivo at 50 mg/kg [1, 8] was 119%, the “Damage Score, Striatum” value ([2]; scale 0-3, mean ± SE, 10 mg/kg / 10 mg/kg per hour i.v., saline, time d (immediately after ischemia, then continuous 24 h), control 2.6 ± 0.3) was 1.97 ± 0.4 and the “Damage Score, Striatum” value ([2]; scale 0-3, mean ± SE, 50 mg/kg / 10 mg/kg per hour i.v., saline, time d (immediately after ischemia, then continuous 24 h), control 2.3 ± 0.4) was 1.13 ± 0.4. The “Infarct Volume” value ([3]; permanent occlusion, 50 mg/kg i.v. single dose, time e (10 min before occlusion), control 140 ± 23) was 123 ± 18 (mm)^3, the “Infarct Volume” value ([3]; permanent occlusion, 10/10 mg/kg i.v. (per hour), time c, control 145 ± 12) was 128 ± 11 (mm)^3 and the “Infarct Volume” value ([3]; permanent occlusion, 20/5 mg/kg i.v. (per hour), time c, control 133 ± 16) was 112 ± 7 (mm)^3. The “Infarct Volume” value ([3]; permanent occlusion, 20/10 mg/kg i.v. (per hour), time c, control 148 ± 9) was 90 ± 18 (mm)^3, the “Infarct Volume” value ([3]; permanent occlusion, 50/10 mg/kg i.v. (per hour), time c, control 142 ± 7) was 76 ± 12 (mm)^3 and the “antioxidative activity of liver lipids” value [6] was “increases the antioxidative activity of liver lipids”. For the same molecule, the “liver tissue regeneration following a partial hepatectomy” value [6] was “increasing liver tissue regeneration following a partial hepatectomy”, the “Damage Score, Hippocampus” value ([4]; scale 0-3, mean ± SE, 10 mg/kg / 10 mg/kg per hour i.v., saline, time d (immediately after ischemia, then continuous 24 h), control 2.4 ± 0.3) was 0.75 ± 0.3 and the “Damage Score, Hippocampus” value ([4]; scale 0-3, mean ± SE, 50 mg/kg / 10 mg/kg per hour i.v., saline, time d (immediately after ischemia, then continuous 24 h), control 2.6 ± 0.3) was 0.66 ± 0.3.

For `CNCc1cc(C(C)(C)C)c(O)c(C(C)(C)C)c1` [N-methyl-3,5-di-t-butyl-4-hydroxybenzylamine], the “rate of blood deoxygenation” value [7] is listed as “increase the rate of blood deoxygenation”.
